Results: PubChem BioAssay AID602260 (Sanford-Burnham Center for Chemical Genomics, 2012)
The source made the active and inactive calls.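 Rule for the calls: active = mean IC50 at or below 20 µM; inactive = the rest.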

biological target: Polyadenylate-binding protein 1 (Homo sapiens) (UniProt P11940); assay: PABP1 MLLE–PAM2 interaction inhibitors, dose response, miRNA deadenylation inhibitor project, biochemical, fluorescence polarization, Cy5-PAM2 peptide, secondary (AID 602260); settings: GST-Mlle / Cy5-PAM2 peptide fluorescence polarization
Sequence (P11940 whole entry, looked up): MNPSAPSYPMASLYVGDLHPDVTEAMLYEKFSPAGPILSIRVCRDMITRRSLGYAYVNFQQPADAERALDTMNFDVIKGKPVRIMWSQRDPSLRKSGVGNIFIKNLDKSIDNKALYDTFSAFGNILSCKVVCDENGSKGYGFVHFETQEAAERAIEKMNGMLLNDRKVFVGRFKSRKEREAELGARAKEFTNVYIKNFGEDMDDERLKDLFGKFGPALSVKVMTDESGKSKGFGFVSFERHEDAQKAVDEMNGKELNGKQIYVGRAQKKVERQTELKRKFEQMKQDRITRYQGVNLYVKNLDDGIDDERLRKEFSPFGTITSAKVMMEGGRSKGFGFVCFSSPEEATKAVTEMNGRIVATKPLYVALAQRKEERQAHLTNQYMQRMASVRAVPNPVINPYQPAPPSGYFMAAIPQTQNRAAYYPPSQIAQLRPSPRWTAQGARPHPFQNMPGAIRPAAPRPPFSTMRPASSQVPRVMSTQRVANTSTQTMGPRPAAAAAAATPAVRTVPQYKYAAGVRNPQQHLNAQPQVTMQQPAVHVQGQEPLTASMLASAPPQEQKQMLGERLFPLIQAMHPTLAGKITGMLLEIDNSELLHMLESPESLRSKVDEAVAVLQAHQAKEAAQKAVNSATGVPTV

Row | IC50 | SMILES
1 | > 66 µM (inactive) | C[c-]1[c-](C)[c-](C)[c-](C)[c-]1C.[Fe].c1cc2nccc(N3CCCC3)[c-]2c1 (stereo not drawn)
2 | inactive | COc1ccc(NC(=O)Nc2ccc([N+](=O)[O-])cc2)cn1
3 | inactive | CCOC(=O)c1c(/N=C/c2cccc([N+](=O)[O-])c2O)sc(C)c1C
